Measured values as given in patent publication US20260355330A1, “CELL PENETRATING PEPTIDES AND USES THEREOF” (VECTIOPEP OÜ, priority 2022, published 2026).
Positions of bridges follow the written chain, without caps; N, C: chain ends. Non-standard residues stand in square brackets, D forms with d. Residues, ends and D or L forms follow the SMILES beside them. Chains are numbered I, II in the order given. *: point of attachment. Docosanoyl = CCCCCCCCCCCCCCCCCCCCCC(=O)*; Arachidoyl = CCCCCCCCCCCCCCCCCCCC(=O)*; Stearoyl = CCCCCCCCCCCCCCCCCC(=O)*; Dab = NCC[C@H](N)C(=O)O

What was measured:
spleen of BALB/c mice = assay: In vivo delivery of mRNA with CPPs - reporter levels in the spleen; details: for Efficacy of mRNA delivery into the spleen in vivo / Delivery of mRNA in vivo compared to NF54 and/or NF55: in words; for Efficacy of mRNA delivery into the spleen in vivo: FIG. 5 / Table 5; for Reporter levels in the spleen (RLU): mRNA, tail vein injection, spleens harvested 16 hours after single injection, whole tissue homogenate; for Delivery of mRNA in vivo compared to NF54 and/or NF55: comparator NF54 and/or NF55
Method: FIG. 5: Delivery of mRNA with CPPs in vivo—reporter levels in the spleen. Spleens were harvested post mortem 16 hours post-injection. The reporter levels (RLU) were evaluated from the whole tissue homogenate.
The transfection complexes (CPP/mRNA) were formed using 10 μg of mRNA mixed with each peptide at indicated charge ratios (CRs) in MQ water in a final volume of 100 μl. CRs were calculated theoretically and account for both the positive charges of the peptide and negative charges of the nucleic acid. The transfection complexes (CPP/mRNA and CPP/pDNA) were formed using 50 μg of mRNA mixed with each peptide at indicated charge ratios (CRs) in MQ water in a final volume of 168 μl. The complexes were incubated for 30 minutes at room temperature and then mixed with equal volume of 10% glucose (resulting in a final solution of 5% glucose in a total volume of 200 μl for 10 μg dose groups and 336 μl for 50 μg dose groups) and immediately injected intravenously via the tail vein.
The reporter gene (luciferase) expression levels were evaluated from the tissue homogenate post mortem 16-24 h after single injection.
CPPs and mRNA complexes were injected through the tail vein of BALB/c mice, spleens were harvested 16 hours after the single injection and reporter signal was measured from the whole tissue homogenate (FIG. 5 and Table 5).

CHO-K1 cells = assay: Delivery of reporter mRNA with CPPs in cell culture (luciferase luminescence 24 h post-transfection); type: cell-based; details: for Average RLU/mg (reporter levels post-transfection of mRNA): firefly luciferase mRNA, 0.1 μg per well, charge ratio 3:1, serum containing media, 24 h, RLU normalised to total protein in lysate; for Efficiency of mRNA transfection/delivery / Delivery of mRNA compared to NF55 / Delivery of mRNA compared to NF54: in words; for Efficiency of mRNA transfection/delivery: FIG. 1 / Table 2, cell culture; for Delivery of mRNA compared to NF55: comparator NF55; for Delivery of mRNA compared to NF54: comparator NF54
Method: FIG. 1: Delivery of reporter mRNA with CPPs in cell culture—evaluation of reporter levels post-transfection (relative light units normalised to total protein in the cell lysate (RLU/mg)). Naked mRNA treated cells were used as controls and Lipofectamine3000 (LF3000) was used to compare the transfection efficacy with a liposome-based transfection reagent.
Adherent CHO-K1 cells were grown in Dulbecco's Modified Eagle's Medium (DMEM), which were supplemented with 0.1 mM non-essential amino acids, 1.0 mM sodium pyruvate, 100 U/ml penicillin, and […]. For complete media, 10% (final) fetal bovine serum (FBS) was added. Cells were maintained in a humidified incubator at 37 °C, 5% CO2. Cell viability and confluence was assessed daily and the cell density was reduced regularly. For cell counting, we used the CytoSMART cell counter accompanied by 0.4% trypan blue staining prior measurement. The multi-well plates with cell cultures used for experiments were incubated in a humidified incubator at 37 °C, 5% CO2.
For in vitro experiments 0.1 μg of nucleic acid (plasmid DNA (pDNA) or mRNA) was used per 96-well plate well. For CPP/NA complex formation, the diluted NA was mixed with CPP in water. Complexes were formed based on the theoretical charge ratio (CR) of positive charges from the peptide in excess to the negative charges from nucleic acid backbone, at charge ratio 3:1 with peptide in excess. Commercial reagent Lipofectamine3000 (LF3000) was used according to the manufacturer's recommendations for the transfection of adherent cells.
For reporter luminescence (expressed from firefly luciferase encoding mRNA or plasmid pDNA) assessment in adherent cell culture, 10,000 cells per 96-well plate well were seeded in 100 μl of media one day prior to transfection. Shortly before transfection, cell media was replaced with 100 μl of serum containing (10% foetal bovine serum) DMEM media. CPPs and mRNA or pDNA were mixed at a charge ratio 3:1 in ultrapure water and incubated at room temperature before addition to cells in serum containing media. Cells were transfected with 0.1 μg of mLuc per well.
24 hours post-transfection, the media was aspirated, cells were washed with 1×PBS, and 30 μl of lysis buffer (0.1% Triton X100 in 1×PBS) was added. Cells were incubated with lysis buffer for 20 min. to lyse the cells. From the lysate, 20 μl was transferred to a black frame white well 96-well plate for luminescence measurement after addition of substrate luciferin (PerkinElmer) in buffer. The luminescence signal was detected with GloMax® 96 microplate luminometer equipped with GloMax® 1.9.2 software (Promega). RLU values were converted to RLU/mg by normalization to total protein in cell lysate, reflecting total number of cells. For protein detection, a Pierce™ BCA Protein Assay Kit was used.
The present inventors have previously reported CPPs developed from the NickFect (NF) and PepFect (PF) families for plasmid (pDNA), siRNA and miRNA delivery (see, e.g. WO 2020/144317, WO 2010/039088 and WO 2012/113846). With the emergence of mRNA-based therapeutics, it was decided to investigate peptides for their ability to deliver mRNA. It was assumed that CPPs that are efficient for siRNA and miRNA delivery, e.g. histidine containing CPPs (Porosk et. al. (2019)), may be good candidates for the delivery of mRNA. Therefore, CPPs from each main family (NF55-, PF14- and NF70-derived CPPs) were tested for mRNA delivery/transfection. Naked mRNA treated and untreated cells were used as control groups. LF3000 was used to compare the transfection efficacy of liposome-based transfection reagents with the CPPs (FIG. 1).

| Structure (SMILES) | Efficacy of mRNA delivery into the spleen in vivo (spleen of BALB/c mice) | Reporter levels in the spleen (RLU) (spleen of BALB/c mice) | Average RLU/mg (reporter levels post-transfection of mRNA) (CHO-K1 cells) | Efficiency of mRNA transfection/delivery (CHO-K1 cells) | Delivery of mRNA compared to NF55 (CHO-K1 cells) | Delivery of mRNA in vivo compared to NF54 and/or NF55 (spleen of BALB/c mice) | Delivery of mRNA compared to NF54 (CHO-K1 cells) | mRNA in vivo spleen delivery efficiency relative to NF70 (spleen of BALB/c mice; vs NF70, 16 h post-injection) [times] | mRNA in vivo spleen delivery efficiency relative to PF1452 (spleen of BALB/c mice; vs PF1452, 16 h post-injection) [times] |
| --- | --- | --- | --- | --- | --- | --- | --- | --- | --- |
| CCCCCCCCCCCCCCCC(=O)N[C@@H](C)C(=O)NCC(=O)N[C@@H](Cc1ccc(O)cc1)C(=O)N[C@@H](CC(C)C)C(=O)N[C@@H](CC(C)C)C(=O)NCC(=O)NCCC[C@H](N)C(=O)N[C@H](C(=O)N[C@@H](CC(N)=O)C(=O)N[C@@H](CC(C)C)C(=O)N[C@@H](CCCCN)C(=O)N[C@@H](C)C(=O)N[C@@H](CC(C)C)C(=O)N[C@@H](C)C(=O)N[C@@H](C)C(=O)N[C@@H](CC(C)C)C(=O)N[C@@H](C)C(=O)N[C@@H](CCCCN)C(=O)N[C@@H](C)C(=O)N[C@H](C(=O)N[C@@H](CC(C)C)C(N)=O)[C@@H](C)CC)[C@@H](C)CC [NF419] | delivered mRNA into the spleen in vivo with high efficacy | 179 114 RLU | 491 000 000 RLU/mg | – | – | – | – | – | – |
| CCCCCCCCCCCCCCCCCC(=O)N[C@@H](C)C(=O)NCC(=O)N[C@@H](Cc1ccc(O)cc1)C(=O)N[C@@H](CC(C)C)C(=O)N[C@@H](CC(C)C)C(=O)NCC(=O)NCC[C@H](N)C(=O)N[C@H](C(=O)N[C@@H](CC(N)=O)C(=O)N[C@@H](CC(C)C)C(=O)N[C@@H](CCCCN)C(=O)N[C@@H](C)C(=O)N[C@@H](CC(C)C)C(=O)N[C@@H](C)C(=O)N[C@@H](C)C(=O)N[C@@H](CC(C)C)C(=O)N[C@@H](C)C(=O)N[C@@H](CCCCN)C(=O)N[C@@H](C)C(=O)N[C@H](C(=O)N[C@@H](CC(C)C)C(N)=O)[C@@H](C)CC)[C@@H](C)CC [NF553] | – | 57 989 RLU | 1 750 000 000 RLU/mg | the most efficient | improved delivery of mRNA over NF55 | – | – | – | – |
| CCCCCCCCCCCCCCCCCCCC(=O)N[C@@H](C)C(=O)NCC(=O)N[C@@H](Cc1ccc(O)cc1)C(=O)N[C@@H](CC(C)C)C(=O)N[C@@H](CC(C)C)C(=O)NCC(=O)NCC[C@H](N)C(=O)N[C@@H](CC(C)C)C(=O)N[C@@H](CCCCN)C(=O)N[C@@H](C)C(=O)N[C@@H](CC(C)C)C(=O)N[C@@H](C)C(=O)N[C@@H](C)C(=O)N[C@@H](CC(C)C)C(=O)N[C@@H](C)C(=O)N[C@@H](CCCCN)C(=O)N[C@@H](C)C(=O)N[C@H](C(=O)N[C@@H](CC(C)C)C(N)=O)[C@@H](C)CC [NF426] (I: H-[Dab]LKALAALAKAIL-NH2 / II: Arachidoyl-AGYLLG; amide I:1-II:C) | delivered mRNA into the spleen in vivo with high efficacy | 259 807 RLU | 1 960 000 000 RLU/mg | the most efficient | good improvement in delivery of mRNA over NF55 | good improvement in mRNA delivery in vivo over NF55 | equivalent delivery of cargo such as mRNA to NF54 | – | – |
| CCCCCCCCCCCCCCCCCCCCCC(=O)N[C@@H](C)C(=O)NCC(=O)N[C@@H](Cc1ccc(O)cc1)C(=O)N[C@@H](CC(C)C)C(=O)N[C@@H](CC(C)C)C(=O)NCC(=O)NCCCC[C@H](N)C(=O)N[C@H](C(=O)N[C@@H](CC(N)=O)C(=O)N[C@@H](CC(C)C)C(=O)N[C@@H](CCCCN)C(=O)N[C@@H](C)C(=O)N[C@@H](CC(C)C)C(=O)N[C@@H](C)C(=O)N[C@@H](C)C(=O)N[C@@H](CC(C)C)C(=O)N[C@@H](C)C(=O)N[C@@H](CCCCN)C(=O)N[C@@H](C)C(=O)N[C@H](C(=O)N[C@@H](CC(C)C)C(N)=O)[C@@H](C)CC)[C@@H](C)CC [NF413] (I: H-KINLKALAALAKAIL-NH2 / II: Docosanoyl-AGYLLG; amide I:1-II:C) | – | 50 495 RLU | 678 000 000 RLU/mg | – | – | – | – | – | – |
| CCCCCCCCCCCCCCCCCC(=O)N[C@@H](C)C(=O)NCC(=O)N[C@@H](Cc1ccc(O)cc1)C(=O)N[C@@H](CC(C)C)C(=O)N[C@@H](CC(C)C)C(=O)NCC(=O)NC[C@H](N)C(=O)N[C@H](C(=O)N[C@@H](CC(N)=O)C(=O)N[C@@H](CC(C)C)C(=O)N[C@@H](CCCCN)C(=O)N[C@@H](C)C(=O)N[C@@H](CC(C)C)C(=O)N[C@@H](C)C(=O)N[C@@H](C)C(=O)N[C@@H](CC(C)C)C(=O)N[C@@H](C)C(=O)N[C@@H](CCCCN)C(=O)N[C@@H](C)C(=O)N[C@H](C(=O)N[C@@H](CC(C)C)C(N)=O)[C@@H](C)CC)[C@@H](C)CC [NF550] | – | 33 032 RLU | 441 000 000 RLU/mg | – | – | – | – | – | – |
| CCCCCCCCCCCCCCCCCCCCCC(=O)N[C@@H](C)C(=O)NCC(=O)N[C@@H](Cc1ccc(O)cc1)C(=O)N[C@@H](CC(C)C)C(=O)N[C@@H](CC(C)C)C(=O)NCC(=O)NCCC[C@H](N)C(=O)N[C@H](C(=O)N[C@@H](CC(N)=O)C(=O)N[C@@H](CC(C)C)C(=O)N[C@@H](CCCCN)C(=O)N[C@@H](C)C(=O)N[C@@H](CC(C)C)C(=O)N[C@@H](C)C(=O)N[C@@H](C)C(=O)N[C@@H](CC(C)C)C(=O)N[C@@H](C)C(=O)N[C@@H](CCCCN)C(=O)N[C@@H](C)C(=O)N[C@H](C(=O)N[C@@H](CC(C)C)C(N)=O)[C@@H](C)CC)[C@@H](C)CC [NF411] | delivered mRNA into the spleen in vivo with high efficacy | 161 716 RLU | 2 090 000 000 RLU/mg | the most efficient | good improvement in delivery of mRNA over NF55 | – | equivalent delivery of mRNA to NF54 | – | – |
| CCCCCCCCCCCCCCCCCC(=O)N[C@@H](C)C(=O)NCC(=O)N[C@@H](Cc1ccc(O)cc1)C(=O)N[C@@H](CC(C)C)C(=O)N[C@@H](CC(C)C)C(=O)NCC(=O)NCC[C@H](N)C(=O)N[C@@H](CC(C)C)C(=O)N[C@@H](CCCCN)C(=O)N[C@@H](C)C(=O)N[C@@H](CC(C)C)C(=O)N[C@@H](C)C(=O)N[C@@H](C)C(=O)N[C@@H](CC(C)C)C(=O)N[C@@H](C)C(=O)N[C@@H](C)C(=O)N[C@@H](CCCCN)C(=O)N[C@H](C(=O)N[C@@H](CC(C)C)C(N)=O)[C@@H](C)CC [NF436] (I: H-[Dab]LKALAALAAKIL-NH2 / II: Stearoyl-AGYLLG; amide I:1-II:C) | highest reporter levels after mRNA delivery into the spleen in vivo | 825 783 RLU | 380 000 000 RLU/mg | – | – | significantly improved delivery of mRNA in vivo over both NF54 and NF55 | – | 100 | 43 |
